Test system: plants
Assay: Test D pre-emergence, other plants of Tables D1 and D3
Format: in vivo
Settings: preemergent, 20 DAA
How it was run: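 Damage was rated visually from 0 (none) to 100 (total), at 20 DAA for pre-emergence and 15 d for post-emergence. Plants grew from safener-treated seed in a glasshouse at 24/18° C. or 20/16° C. day/night, 65% humidity, watered twice daily.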

For `CN1CC(c2cc(C(F)(F)F)n(C)n2)C(C(=O)Nc2ccc(F)nc2F)C1=O` (racemic) [Compound 22], which “damage to plant (100=total damage to plant; 0=no damage to plant), ABUTH” value (rate 15) is on record?
The value was 0.

And the “damage to plant (100=total damage to plant; 0=no damage to plant), ABUTH” value (rate 30)?
Its value is 0.

What about the “damage to plant (100=total damage to plant; 0=no damage to plant), ABUTH” value (rate 60) of the same molecule?
Its value is 0.

What about the “damage to plant (100=total damage to plant; 0=no damage to plant), ABUTH” value (rate 130) of the same molecule?
Its value is 0.

What about the “damage to plant (100=total damage to plant; 0=no damage to plant), ABUTH” value (rate 250) of the same molecule?
The value was 0.

What about the “damage to plant (100=total damage to plant; 0=no damage to plant), ABUTH” value (rate 500) of the same molecule?
Its value is 0.

And the “damage to plant (100=total damage to plant; 0=no damage to plant), AMARE” value (rate 15)?
The value was 0.

What about the “damage to plant (100=total damage to plant; 0=no damage to plant), AMARE” value (rate 30) of the same molecule?
Its value is 0.

And the “damage to plant (100=total damage to plant; 0=no damage to plant), AMARE” value (rate 60)?
Its value is 0.

What about the “damage to plant (100=total damage to plant; 0=no damage to plant), AMARE” value (rate 130) of the same molecule?
Its value is 0.

And the “damage to plant (100=total damage to plant; 0=no damage to plant), AMARE” value (rate 250)?
Its value is 0.

What about the “damage to plant (100=total damage to plant; 0=no damage to plant), AMARE” value (rate 500) of the same molecule?
The value was 0.

And the “damage to plant (100=total damage to plant; 0=no damage to plant), BIDPI” value (rate 15)?
Its value is 0.

What about the “damage to plant (100=total damage to plant; 0=no damage to plant), BIDPI” value (rate 30) of the same molecule?
Its value is 0.

And the “damage to plant (100=total damage to plant; 0=no damage to plant), BIDPI” value (rate 60)?
The value was 0.

What about the “damage to plant (100=total damage to plant; 0=no damage to plant), BIDPI” value (rate 130) of the same molecule?
Its value is 0.

What about the “damage to plant (100=total damage to plant; 0=no damage to plant), BIDPI” value (rate 250) of the same molecule?
The value was 0.

What about the “damage to plant (100=total damage to plant; 0=no damage to plant), BIDPI” value (rate 500) of the same molecule?
Its value is 0.

What about the “damage to plant (100=total damage to plant; 0=no damage to plant), BRAPL” value (rate 15) of the same molecule?
The value was 0.

And the “damage to plant (100=total damage to plant; 0=no damage to plant), BRAPL” value (rate 30)?
Its value is 20.

And the “damage to plant (100=total damage to plant; 0=no damage to plant), BRAPL” value (rate 60)?
The value was 70.

And the “damage to plant (100=total damage to plant; 0=no damage to plant), BRAPL” value (rate 130)?
The value was 80.

What about the “damage to plant (100=total damage to plant; 0=no damage to plant), BRAPL” value (rate 250) of the same molecule?
Its value is 90.

What about the “damage to plant (100=total damage to plant; 0=no damage to plant), BRAPL” value (rate 500) of the same molecule?
Its value is 90.

And the “damage to plant (100=total damage to plant; 0=no damage to plant), CYPES” value (rate 15)?
Its value is 0.

And the “damage to plant (100=total damage to plant; 0=no damage to plant), CYPES” value (rate 30)?
The value was 0.

And the “damage to plant (100=total damage to plant; 0=no damage to plant), CYPES” value (rate 60)?
Its value is 0.

And the “damage to plant (100=total damage to plant; 0=no damage to plant), CYPES” value (rate 130)?
The value was 0.

And the “damage to plant (100=total damage to plant; 0=no damage to plant), CYPES” value (rate 250)?
Its value is 0.

And the “damage to plant (100=total damage to plant; 0=no damage to plant), CYPES” value (rate 500)?
Its value is 0.

What about the “damage to plant (100=total damage to plant; 0=no damage to plant), DIGSA” value (rate 15) of the same molecule?
Its value is 0.

And the “damage to plant (100=total damage to plant; 0=no damage to plant), DIGSA” value (rate 30)?
The value was 20.

And the “damage to plant (100=total damage to plant; 0=no damage to plant), DIGSA” value (rate 60)?
The value was 80.

And the “damage to plant (100=total damage to plant; 0=no damage to plant), DIGSA” value (rate 130)?
Its value is 80.

What about the “damage to plant (100=total damage to plant; 0=no damage to plant), DIGSA” value (rate 250) of the same molecule?
The value was 100.

What about the “damage to plant (100=total damage to plant; 0=no damage to plant), DIGSA” value (rate 500) of the same molecule?
The value was 100.

And the “damage to plant (100=total damage to plant; 0=no damage to plant), ECHCG” value (rate 15)?
Its value is 0.

And the “damage to plant (100=total damage to plant; 0=no damage to plant), ECHCG” value (rate 30)?
Its value is 0.

What about the “damage to plant (100=total damage to plant; 0=no damage to plant), ECHCG” value (rate 60) of the same molecule?
Its value is 60.

What about the “damage to plant (100=total damage to plant; 0=no damage to plant), ECHCG” value (rate 130) of the same molecule?
The value was 80.

What about the “damage to plant (100=total damage to plant; 0=no damage to plant), ECHCG” value (rate 250) of the same molecule?
The value was 90.

What about the “damage to plant (100=total damage to plant; 0=no damage to plant), ECHCG” value (rate 500) of the same molecule?
The value was 100.

And the “damage to plant (100=total damage to plant; 0=no damage to plant), ELEIN” value (rate 15)?
The value was 0.

And the “damage to plant (100=total damage to plant; 0=no damage to plant), ELEIN” value (rate 30)?
Its value is 0.

What about the “damage to plant (100=total damage to plant; 0=no damage to plant), ELEIN” value (rate 60) of the same molecule?
The value was 0.

And the “damage to plant (100=total damage to plant; 0=no damage to plant), ELEIN” value (rate 130)?
The value was 0.

What about the “damage to plant (100=total damage to plant; 0=no damage to plant), ELEIN” value (rate 250) of the same molecule?
Its value is 0.

What about the “damage to plant (100=total damage to plant; 0=no damage to plant), ELEIN” value (rate 500) of the same molecule?
Its value is 0.

And the “damage to plant (100=total damage to plant; 0=no damage to plant), EPHHL” value (rate 15)?
Its value is 0.

What about the “damage to plant (100=total damage to plant; 0=no damage to plant), EPHHL” value (rate 30) of the same molecule?
Its value is 0.

And the “damage to plant (100=total damage to plant; 0=no damage to plant), EPHHL” value (rate 60)?
Its value is 0.

And the “damage to plant (100=total damage to plant; 0=no damage to plant), EPHHL” value (rate 130)?
The value was 0.

And the “damage to plant (100=total damage to plant; 0=no damage to plant), EPHHL” value (rate 250)?
Its value is 0.

And the “damage to plant (100=total damage to plant; 0=no damage to plant), EPHHL” value (rate 500)?
The value was 0.

And the “damage to plant (100=total damage to plant; 0=no damage to plant), GLXMA” value (rate 15)?
Its value is 0.

What about the “damage to plant (100=total damage to plant; 0=no damage to plant), GLXMA” value (rate 30) of the same molecule?
Its value is 0.

And the “damage to plant (100=total damage to plant; 0=no damage to plant), GLXMA” value (rate 60)?
The value was 0.

And the “damage to plant (100=total damage to plant; 0=no damage to plant), GLXMA” value (rate 130)?
The value was 0.

And the “damage to plant (100=total damage to plant; 0=no damage to plant), GLXMA” value (rate 250)?
Its value is 0.

What about the “damage to plant (100=total damage to plant; 0=no damage to plant), GLXMA” value (rate 500) of the same molecule?
Its value is 0.

What about the “damage to plant (100=total damage to plant; 0=no damage to plant), IPOHE” value (rate 15) of the same molecule?
The value was 0.

And the “damage to plant (100=total damage to plant; 0=no damage to plant), IPOHE” value (rate 30)?
Its value is 0.

What about the “damage to plant (100=total damage to plant; 0=no damage to plant), IPOHE” value (rate 60) of the same molecule?
The value was 0.

And the “damage to plant (100=total damage to plant; 0=no damage to plant), IPOHE” value (rate 130)?
The value was 0.

And the “damage to plant (100=total damage to plant; 0=no damage to plant), IPOHE” value (rate 250)?
The value was 0.

What about the “damage to plant (100=total damage to plant; 0=no damage to plant), IPOHE” value (rate 500) of the same molecule?
Its value is 0.

What about the “damage to plant (100=total damage to plant; 0=no damage to plant), ORYSA” value (rate 15) of the same molecule?
The value was 0.

What about the “damage to plant (100=total damage to plant; 0=no damage to plant), ORYSA” value (rate 30) of the same molecule?
The value was 0.

And the “damage to plant (100=total damage to plant; 0=no damage to plant), ORYSA” value (rate 60)?
Its value is 0.

And the “damage to plant (100=total damage to plant; 0=no damage to plant), ORYSA” value (rate 130)?
Its value is 0.

What about the “damage to plant (100=total damage to plant; 0=no damage to plant), ORYSA” value (rate 250) of the same molecule?
The value was 0.

And the “damage to plant (100=total damage to plant; 0=no damage to plant), ORYSA” value (rate 500)?
The value was 0.

And the “damage to plant (100=total damage to plant; 0=no damage to plant), PANMI” value (rate 15)?
Its value is 0.

And the “damage to plant (100=total damage to plant; 0=no damage to plant), PANMI” value (rate 30)?
The value was 0.

What about the “damage to plant (100=total damage to plant; 0=no damage to plant), PANMI” value (rate 60) of the same molecule?
The value was 0.

What about the “damage to plant (100=total damage to plant; 0=no damage to plant), PANMI” value (rate 130) of the same molecule?
Its value is 0.

What about the “damage to plant (100=total damage to plant; 0=no damage to plant), PANMI” value (rate 250) of the same molecule?
The value was 0.

What about the “damage to plant (100=total damage to plant; 0=no damage to plant), PANMI” value (rate 500) of the same molecule?
The value was 0.

And the “damage to plant (100=total damage to plant; 0=no damage to plant), SETFA” value (rate 15)?
The value was 0.

What about the “damage to plant (100=total damage to plant; 0=no damage to plant), SETFA” value (rate 30) of the same molecule?
Its value is 0.

What about the “damage to plant (100=total damage to plant; 0=no damage to plant), SETFA” value (rate 60) of the same molecule?
The value was 0.

What about the “damage to plant (100=total damage to plant; 0=no damage to plant), SETFA” value (rate 130) of the same molecule?
The value was 30.

What about the “damage to plant (100=total damage to plant; 0=no damage to plant), SETFA” value (rate 250) of the same molecule?
Its value is 60.

What about the “damage to plant (100=total damage to plant; 0=no damage to plant), SETFA” value (rate 500) of the same molecule?
Its value is 90.

And the “damage to plant (100=total damage to plant; 0=no damage to plant), SORVU” value (rate 15)?
The value was 0.

And the “damage to plant (100=total damage to plant; 0=no damage to plant), SORVU” value (rate 30)?
Its value is 0.

What about the “damage to plant (100=total damage to plant; 0=no damage to plant), SORVU” value (rate 60) of the same molecule?
The value was 0.

And the “damage to plant (100=total damage to plant; 0=no damage to plant), SORVU” value (rate 130)?
Its value is 0.

What about the “damage to plant (100=total damage to plant; 0=no damage to plant), SORVU” value (rate 250) of the same molecule?
Its value is 0.

And the “damage to plant (100=total damage to plant; 0=no damage to plant), SORVU” value (rate 500)?
The value was 0.
